Measured values as given in PubChem BioAssay AID256 (DTP/NCI, 2004).
Where “and” joins values, the source holds several entries; their conditions need not be identical. Equal entries are not always repeated. Inconclusive results and toxic doses are left out. Rule for the calls: active = survival T/C of 150% or more; inactive = T/C below 125% in these data.

System: CD2F1 mice, L1210 leukemia ip, survival T/C
Test: NCI In Vivo Anticancer Drug Screen. Data for tumor model L1210 Leukemia (intraperitoneal) in CD2F1 (CDF1) mice
Settings: higher = longer survival
How it was run: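 Transplantable tumor in mice; compound-treated vs vehicle-treated groups. Read-out = treated/control ratio of the measured endpoint.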

[1] = endpoint: mean survival time, dose: 100.0 mg/kg/injection, schedule: Q01DX001 (ip), vehicle: saline with Tween-80
[2] = endpoint: mean survival time, dose: 200.0 mg/kg/injection, schedule: Q01DX001 (ip), vehicle: saline with Tween-80
[3] = endpoint: mean survival time, dose: 400.0 mg/kg/injection, schedule: Q01DX001 (ip), vehicle: saline with Tween-80
[4] = endpoint: mean survival time, dose: 100.0 mg/kg/injection, schedule: Q01DX009 (ip), vehicle: saline with Tween-80
[5] = endpoint: mean survival time, dose: 200.0 mg/kg/injection, schedule: Q01DX009 (ip), vehicle: saline with Tween-80
[6] = endpoint: mean survival time, dose: 400.0 mg/kg/injection, schedule: Q01DX009 (ip), vehicle: saline with Tween-80
[7] = endpoint: mean survival time, dose: 100.0 mg/kg/injection, schedule: Q01DX001 (ip), vehicle: other
[8] = endpoint: mean survival time, dose: 200.0 mg/kg/injection, schedule: Q01DX001 (ip), vehicle: other
[9] = endpoint: mean survival time, dose: 400.0 mg/kg/injection, schedule: Q01DX001 (ip), vehicle: other
[10] = endpoint: mean survival time, dose: 50.0 mg/kg/injection, schedule: Q01DX009 (ip), vehicle: saline
[11] = endpoint: mean survival time, dose: 100.0 mg/kg/injection, schedule: Q01DX001 (ip), vehicle: saline
[12] = endpoint: mean survival time, dose: 200.0 mg/kg/injection, schedule: Q01DX001 (ip), vehicle: saline
[13] = endpoint: mean survival time, dose: 100.0 mg/kg/injection, schedule: Q04DX003 (ip), vehicle: saline with Tween-80
[14] = endpoint: mean survival time, dose: 200.0 mg/kg/injection, schedule: Q04DX003 (ip), vehicle: saline with Tween-80
[15] = endpoint: mean survival time, dose: 400.0 mg/kg/injection, schedule: Q04DX003 (ip), vehicle: saline with Tween-80
[16] = endpoint: mean survival time, dose: 25.0 mg/kg/injection, schedule: Q01DX009 (ip), vehicle: saline
[17] = endpoint: mean survival time, dose: 100.0 mg/kg/injection, schedule: Q01DX009 (ip), vehicle: saline
[18] = endpoint: mean survival time, dose: 50.0 mg/kg/injection, schedule: Q01DX009 (ip), vehicle: Klucel (hydroxypropylcellulose) (HPC)
[19] = endpoint: mean survival time, dose: 100.0 mg/kg/injection, schedule: Q01DX009 (ip), vehicle: Klucel (hydroxypropylcellulose) (HPC)
[20] = endpoint: mean survival time, dose: 200.0 mg/kg/injection, schedule: Q01DX009 (ip), vehicle: Klucel (hydroxypropylcellulose) (HPC)
[21] = endpoint: mean survival time, dose: 25.0 mg/kg/injection, schedule: Q01DX009 (ip), vehicle: saline with Tween-80
[22] = endpoint: mean survival time, dose: 50.0 mg/kg/injection, schedule: Q01DX009 (ip), vehicle: saline with Tween-80

Measured: T/C

CCOC(=O)Nc1cc2c(c(N)n1)NC(CN(C)c1ccccc1)CN2 (centres undefined)
inactive: endpoint: mean survival time, dose: 100.0 mg/kg/injection, schedule: Q01DX001 (ip), vehicle: Klucel (hydroxypropylcellulose) (HPC) 94 % of control | endpoint: mean survival time, dose: 200.0 mg/kg/injection, schedule: Q01DX001 (ip), vehicle: Klucel (hydroxypropylcellulose) (HPC) 103 % of control | endpoint: mean survival time, dose: 400.0 mg/kg/injection, schedule: Q01DX001 (ip), vehicle: Klucel (hydroxypropylcellulose) (HPC) 110 % of control

CC(C)(C)c1ccc(-n2cnc3c(=O)[nH]c(N)nc32)cc1
inactive: endpoint: mean survival time, dose: 50.0 mg/kg/injection, schedule: Q04DX002 (ip), vehicle: saline with Tween-80 86 % of control | endpoint: mean survival time, dose: 100.0 mg/kg/injection, schedule: Q04DX002 (ip), vehicle: saline with Tween-80 90 % of control

Nc1ccc2c(c1)CN1C(=O)c3ccccc3C1=N2
inactive: endpoint: median survival time, dose: 12.5 mg/kg/injection, schedule: Q01DX009 (ip), vehicle: saline with Tween-80 111 % of control | endpoint: median survival time, dose: 25.0 mg/kg/injection, schedule: Q01DX009 (ip), vehicle: saline with Tween-80 115 % of control | endpoint: median survival time, dose: 50.0 mg/kg/injection, schedule: Q01DX009 (ip), vehicle: saline with Tween-80 116 % of control | endpoint: median survival time, dose: 100.0 mg/kg/injection, schedule: Q01DX009 (ip), vehicle: saline with Tween-80 108 % of control

C(=C\c1ccccc1)/C[P+](c1ccccc1)(c1ccccc1)c1ccccc1
inactive: endpoint: mean survival time, dose: 5.0 mg/kg/injection, schedule: Q01DX009 (ip), vehicle: saline with Tween-80 98 % of control | endpoint: mean survival time, dose: 5.0 mg/kg/injection, schedule: Q04DX003 (ip), vehicle: saline with Tween-80 100 % of control | endpoint: mean survival time, dose: 10.0 mg/kg/injection, schedule: Q01DX009 (ip), vehicle: saline with Tween-80 100 % of control | endpoint: mean survival time, dose: 10.0 mg/kg/injection, schedule: Q04DX003 (ip), vehicle: saline with Tween-80 100 % of control | endpoint: mean survival time, dose: 20.0 mg/kg/injection, schedule: Q01DX009 (ip), vehicle: saline with Tween-80 94 % of control | endpoint: mean survival time, dose: 20.0 mg/kg/injection, schedule: Q04DX003 (ip), vehicle: saline with Tween-80 97 % of control

O=[N+]([O-])/C(=C/C=C/c1ccccc1)c1ccccc1
inactive: [1] 101 % of control | [2] 103 % of control | [3] 91 % of control

COC(=O)C(Cl)C(Cl)c1ccccc1 (centres undefined)
inactive: [4] 100 % of control | [5] 105 % of control | [6] 101 % of control

CC(N)(C(=O)O)c1ccccc1 (centres undefined)
inactive: [7] 92 % of control and 96 % of control | [8] 100 % of control and 102 % of control | [9] 96 % of control and 94 % of control

NC(N)=N/N=C(/c1ccccc1)c1ccc(F)cc1
inactive: [10] 101 % of control

CC(=O)C(C)(c1ccccc1)N(Cc1ccccc1)C(=O)c1ccccc1 (centres undefined)
inactive: [11] 96 % of control | [12] 98 % of control | endpoint: mean survival time, dose: 400.0 mg/kg/injection, schedule: Q01DX001 (ip), vehicle: saline 96 % of control

O=C(NCCCl)Nc1cccc(Cl)c1
inactive: [1] 87 % of control | [2] 102 % of control | [3] 90 % of control

c1ccc(-c2nncnn2)cc1
inactive: [13] 92 % of control

O=C(Nc1cc(C(F)(F)F)ccc1Cl)c1cccc(Cl)c1
inactive: [4] 95 % of control | [13] 102 % of control | [5] 98 % of control | [14] 93 % of control | [6] 98 % of control | [15] 94 % of control

CC(C)C1=CC23CCC4C(C)(C(=O)O)CCCC4(C)C2CC1OO3 (centres undefined)
inactive: [13] 93 % of control | [14] 92 % of control | [15] 95 % of control

CN=NCCO
inactive: [16] 104 % of control | [10] 96 % of control | [11] 94 % of control | [17] 100 % of control | [12] 94 % of control

CN=C(NC)S(=O)O
inactive: [17] 97 % of control | endpoint: mean survival time, dose: 200.0 mg/kg/injection, schedule: Q01DX009 (ip), vehicle: saline 97 % of control | endpoint: mean survival time, dose: 400.0 mg/kg/injection, schedule: Q01DX009 (ip), vehicle: saline 101 % of control

CS/C([S-])=N/N=C\c1ccccn1.CS/C([S-])=N/N=C\c1ccccn1.[Fe+2]
inactive: [13] 103 % of control | [14] 91 % of control | [15] 91 % of control

CCOCc1ccc(C(=O)O)cc1
inactive: [4] 96 % of control | [5] 101 % of control | [6] 101 % of control

C=C(C)CNCC(=C)C
inactive: endpoint: mean survival time, dose: 25.0 mg/kg/injection, schedule: Q04DX003 (ip), vehicle: saline 102 % of control | endpoint: mean survival time, dose: 50.0 mg/kg/injection, schedule: Q04DX003 (ip), vehicle: saline 98 % of control | endpoint: mean survival time, dose: 100.0 mg/kg/injection, schedule: Q04DX003 (ip), vehicle: saline 102 % of control and 106 % of control

O=C(Nc1ccccc1)O/N=C(/c1ccccc1)c1ccccn1
inactive: [7] 104 % of control | [8] 98 % of control | [9] 101 % of control

O=C1c2ccccc2C(=O)N1Cl
inactive: [18] 96 % of control | endpoint: mean survival time, dose: 50.0 mg/kg/injection, schedule: Q04DX003 (ip), vehicle: other 100 % of control | [19] 89 % of control | endpoint: mean survival time, dose: 100.0 mg/kg/injection, schedule: Q04DX003 (ip), vehicle: other 104 % of control | [20] 93 % of control | endpoint: mean survival time, dose: 200.0 mg/kg/injection, schedule: Q04DX003 (ip), vehicle: other 110 % of control

N#Cc1nc(N)nc2c1ncn2-c1ccc(C(N)=O)cc1
inactive: [1] 96 % of control | [2] 101 % of control | [3] 90 % of control

COc1cc(C=O)ccc1OCc1ccccc1
inactive: [13] 106 % of control | [14] 95 % of control | [15] 113 % of control

COc1cccc(CCNC(=O)CCN2C(=O)CCC2=O)c1
inactive: [4] 98 % of control | endpoint: mean survival time, dose: 100.0 mg/kg/injection, schedule: Q04DX003 (ip), vehicle: saline sonified 101 % of control | [5] 93 % of control | endpoint: mean survival time, dose: 200.0 mg/kg/injection, schedule: Q04DX003 (ip), vehicle: saline sonified 98 % of control | [6] 100 % of control | endpoint: mean survival time, dose: 400.0 mg/kg/injection, schedule: Q04DX003 (ip), vehicle: saline sonified 104 % of control

Clc1ncc2cnccn12
inactive: [4] 101 % of control

CCCCCCCCCCCCCCCCCCN1CCOCC1
inactive: endpoint: mean survival time, dose: 12.5 mg/kg/injection, schedule: Q01DX009 (ip), vehicle: saline with Tween-80 94 % of control | [21] 102 % of control | [22] 94 % of control

NC(=S)Nc1ccc(C(=O)O)cc1
inactive: [4] 96 % of control | [13] 93 % of control | [5] 100 % of control | [14] 94 % of control | [6] 86 % of control | [15] 90 % of control

COC1=C(N2CC2)C(=O)C(OC)=C(N2CC2)C1=O
inactive: endpoint: mean survival time, dose: 0.9 mg/kg/injection, schedule: Q01DX015 (ip), vehicle: saline 115 % of control | endpoint: mean survival time, dose: 1.3 mg/kg/injection, schedule: Q01DX015 (ip), vehicle: saline 119 % of control | endpoint: mean survival time, dose: 3.0 mg/kg/injection, schedule: Q01DX015 (ip), vehicle: saline 113 % of control

NC1CCCCCCC1O (centres undefined)
inactive: endpoint: mean survival time, dose: 5.0 mg/kg/injection, schedule: Q01DX001 (ip), vehicle: saline sonified 114 % of control | endpoint: mean survival time, dose: 10.0 mg/kg/injection, schedule: Q01DX001 (ip), vehicle: saline sonified 92 % of control | endpoint: mean survival time, dose: 20.0 mg/kg/injection, schedule: Q01DX001 (ip), vehicle: saline sonified 100 % of control

[B-][N+](C)(C)Cc1ccccc1
inactive: [21] 94 % of control | [22] 88 % of control | [1] 101 % of control

CCN(CC)C1=C(c2ccccc2)C(=O)C(=O)C1c1ccccc1 (centres undefined)
inactive: [1] 103 % of control | [2] 107 % of control | [3] 94 % of control

COc1cccc(CCC(=O)O)c1OC
inactive: endpoint: mean survival time, dose: 25.0 mg/kg/injection, schedule: Q01DX009 (ip), vehicle: Klucel (hydroxypropylcellulose) (HPC) 98 % of control | [18] 101 % of control | [19] 98 % of control | [20] 87 % of control | endpoint: mean survival time, dose: 400.0 mg/kg/injection, schedule: Q01DX009 (ip), vehicle: Klucel (hydroxypropylcellulose) (HPC) 88 % of control

CCN(C(=O)Nc1cccc2ccccc12)c1ccccc1
inactive: [13] 104 % of control | [14] 101 % of control | [15] 109 % of control

Cc1ccccc1[As](c1ccccc1C)c1ccccc1C
inactive: [16] 86 % of control | [17] 86 % of control

CC(CO)(CO)N(CCO)CCO
inactive: [13] 94 % of control | [14] 100 % of control | [15] 92 % of control
